# Data reported in ChEMBL document CHEMBL3046109, “A Method for Monitoring the Sensitivity of Botrytis cinerea to Mepanipyrim” (2004).
# How the values were obtained:
# Type in all cases: functional
# [1] = test system: Botrytis cinerea; assay: Fungicidal activity against anilinopyrimidine-resistant Botryotinia fuckeliana CH164.94 isolated from grape plant assessed as inhibition of mycelial growth at 100 mg/l after 4 days; conditions: CH164.94, 96 h, read-out: GI
# [2] = test system: Botrytis cinerea; assay: Fungicidal activity against anilinopyrimidine-resistant Botryotinia fuckeliana CH15.93 isolated from grape plant assessed as inhibition of mycelial growth at 0.3 mg/l after 4 days; conditions: CH15.93, 96 h, read-out: GI
# [3] = test system: Botrytis cinerea; assay: Fungicidal activity against anilinopyrimidine-sensitive Botryotinia fuckeliana KU-01 isolated from grape plant assessed as inhibition of mycelial growth at 0.3 mg/l after 4 days; conditions: KU-01, 96 h, read-out: GI
# [4] = test system: Botrytis cinerea; assay: Fungicidal activity against anilinopyrimidine-sensitive Botryotinia fuckeliana KU-59 infected in strawberry fruit assessed as inhibition of mycelial growth at 100 mg/l treated 2-3 hr before challenge measured after 5 days; conditions: read-out: GI
# [5] = test system: Botrytis cinerea; assay: Fungicidal activity against anilinopyrimidine-resistant Botryotinia fuckeliana CH12.92 isolated from grape plant assessed as inhibition of mycelial growth at 30 mg/l after 4 days; conditions: CH12.92, 96 h, read-out: GI
# [6] = test system: Botrytis cinerea; assay: Fungicidal activity against anilinopyrimidine-resistant Botryotinia fuckeliana CH15.93 isolated from grape plant assessed as inhibition of mycelial growth at 30 mg/l after 4 days; conditions: CH15.93, 96 h, read-out: GI
# [7] = test system: Botrytis cinerea; assay: Fungicidal activity against anilinopyrimidine-resistant Botryotinia fuckeliana CH12.92 infected in strawberry fruit assessed as inhibition of mycelial growth at 50 mg/l treated 2-3 hr before challenge measured after 5 days; conditions: read-out: GI
# [8] = test system: Botrytis cinerea; assay: Fungicidal activity against anilinopyrimidine-resistant Botryotinia fuckeliana CH15.93 infected in strawberry fruit assessed as inhibition of mycelial growth at 100 mg/l treated 2-3 hr before challenge measured after 5 days; conditions: read-out: GI
# [9] = test system: Botrytis cinerea; assay: Fungicidal activity against anilinopyrimidine-sensitive Botryotinia fuckeliana KU-59 isolated from grape plant assessed as inhibition of mycelial growth at 100 mg/l after 4 days; conditions: KU-59, 96 h, read-out: GI
# [10] = test system: Botrytis cinerea; assay: Fungicidal activity against anilinopyrimidine-sensitive Botryotinia fuckeliana KU-01 infected in strawberry fruit assessed as inhibition of mycelial growth at 100 mg/l treated 2-3 hr before challenge measured after 5 days; conditions: read-out: GI
# [11] = test system: Botrytis cinerea; assay: Fungicidal activity against anilinopyrimidine-resistant Botryotinia fuckeliana CH15.93 infected in strawberry fruit assessed as inhibition of mycelial growth at 200 mg/l treated 2-3 hr before challenge measured after 5 days; conditions: read-out: GI
# [12] = test system: Botrytis cinerea; assay: Fungicidal activity against anilinopyrimidine-resistant Botryotinia fuckeliana CH12.92 isolated from grape plant assessed as inhibition of mycelial growth at 10 mg/l after 4 days; conditions: CH12.92, 96 h, read-out: GI
# [13] = test system: Botrytis cinerea; assay: Fungicidal activity against anilinopyrimidine-sensitive Botryotinia fuckeliana KU-01 isolated from grape plant assessed as inhibition of mycelial growth at 3 mg/l after 4 days; conditions: KU-01, 96 h, read-out: GI
# [14] = test system: Botrytis cinerea; assay: Fungicidal activity against anilinopyrimidine-resistant Botryotinia fuckeliana CH12.92 isolated from grape plant assessed as inhibition of mycelial growth at 100 mg/l after 4 days; conditions: CH12.92, 96 h, read-out: GI
# [15] = test system: Botrytis cinerea; assay: Fungicidal activity against anilinopyrimidine-sensitive Botryotinia fuckeliana KU-01 isolated from grape plant assessed as inhibition of mycelial growth at 30 mg/l after 4 days; conditions: KU-01, 96 h, read-out: GI
# [16] = test system: Botrytis cinerea; assay: Fungicidal activity against anilinopyrimidine-resistant Botryotinia fuckeliana CH12.92 infected in strawberry fruit assessed as inhibition of mycelial growth at 100 mg/l treated 2-3 hr before challenge measured after 5 days; conditions: read-out: GI
# [17] = test system: Botrytis cinerea; assay: Fungicidal activity against anilinopyrimidine-sensitive Botryotinia fuckeliana KU-59 isolated from grape plant assessed as inhibition of mycelial growth at 10 mg/l after 4 days; conditions: KU-59, 96 h, read-out: GI
# [18] = test system: Botrytis cinerea; assay: Fungicidal activity against anilinopyrimidine-sensitive Botryotinia fuckeliana KU-59 infected in strawberry fruit assessed as inhibition of mycelial growth at 50 mg/l treated 2-3 hr before challenge measured after 5 days; conditions: read-out: GI
# [19] = test system: Botrytis cinerea; assay: Fungicidal activity against anilinopyrimidine-resistant Botryotinia fuckeliana CH164.94 isolated from grape plant assessed as inhibition of mycelial growth at 1 mg/l after 4 days; conditions: CH164.94, 96 h, read-out: GI
# [20] = test system: Botrytis cinerea; assay: Fungicidal activity against anilinopyrimidine-resistant Botryotinia fuckeliana CH164.94 isolated from grape plant assessed as inhibition of mycelial growth at 30 mg/l after 4 days; conditions: CH164.94, 96 h, read-out: GI
# [21] = test system: Botrytis cinerea; assay: Fungicidal activity against anilinopyrimidine-sensitive Botryotinia fuckeliana KU-59 isolated from grape plant assessed as inhibition of mycelial growth at 30 mg/l after 4 days; conditions: KU-59, 96 h, read-out: GI
# [22] = test system: Botrytis cinerea; assay: Fungicidal activity against anilinopyrimidine-resistant Botryotinia fuckeliana CH164.94 infected in strawberry fruit assessed as inhibition of mycelial growth at 100 mg/l treated 2-3 hr before challenge measured after 5 days; conditions: read-out: GI
# [23] = test system: Botrytis cinerea; assay: Fungicidal activity against anilinopyrimidine-resistant Botryotinia fuckeliana CH164.94 isolated from grape plant assessed as inhibition of mycelial growth at 10 mg/l after 4 days; conditions: CH164.94, 96 h, read-out: GI
# [24] = test system: Botrytis cinerea; assay: Fungicidal activity against anilinopyrimidine-resistant Botryotinia fuckeliana CH15.93 isolated from grape plant assessed as inhibition of mycelial growth at 10 mg/l after 4 days; conditions: CH15.93, 96 h, read-out: GI
# [25] = test system: Botrytis cinerea; assay: Fungicidal activity against anilinopyrimidine-sensitive Botryotinia fuckeliana KU-01 isolated from grape plant assessed as inhibition of mycelial growth at 1 mg/l after 4 days; conditions: KU-01, 96 h, read-out: GI
compound,measurement,setting,value
CC#Cc1cc(C)nc(Nc2ccccc2)n1 [MEPANIPYRIM],inhibition of growth at 100 µg/mL,[1],70.8%
same,inhibition of growth at 0.3 µg/mL,[2],0%
same,inhibition of growth at 0.3 µg/mL,[3],100%
same,inhibition of growth at 100 µg/mL,[4],100%
same,inhibition of growth at 30 µg/mL,[5],63.2%
same,inhibition of growth at 30 µg/mL,[6],74.1%
same,inhibition of growth at 50 µg/mL,[7],0%
same,inhibition of growth at 100 µg/mL,[8],0%
same,inhibition of growth at 100 µg/mL,[9],100%
same,inhibition of growth at 100 µg/mL,[10],100%
same,inhibition of growth at 200 µg/mL,[11],0%
same,inhibition of growth at 10 µg/mL,[12],65.7%
same,inhibition of growth at 3 µg/mL,[13],100%
same,inhibition of growth at 100 µg/mL,[14],70.4%
same,inhibition of growth at 30 µg/mL,[15],100%
same,inhibition of growth at 100 µg/mL,[16],0%
same,inhibition of growth at 10 µg/mL,[17],100%
same,inhibition of growth at 50 µg/mL,[18],100%
same,inhibition of growth at 1 µg/mL,[19],38.3%
same,inhibition of growth at 30 µg/mL,[20],66.2%
same,inhibition of growth at 30 µg/mL,[21],100%
same,inhibition of growth at 100 µg/mL,[22],0%
same,inhibition of growth at 10 µg/mL,[23],67.1%
same,inhibition of growth at 10 µg/mL,[24],72.6%
same,inhibition of growth at 1 µg/mL,[25],100%
